Two compounds from patent US9763996B2, “Polymyxin derivative and uses thereof” (Northern Antibiotics Ltd., priority 2015, dated 2017) can be followed below.

≈ marks a conversion by molar mass, not a printed value. Entries after “also recorded” stand apart in the source; their conditions may differ. Read-outs that look alike come from different tables or passages of the source. Where a SMILES comes first, the peptide text is derived from it. Bridges are numbered along the chain shown (N, C = ends). [ ]: non-standard residue; d: D form. The star is where a group is joined. Octanoyl = CCCCCCCC(=O)*; Dab = NCC[C@H](N)C(=O)O

One data set relates to P. aeruginosa. In words: Synergy studies with rifampin. As to conditions: against P. aeruginosa. The data set is classed as cell-based, Pseudomonas aeruginosa. Here is the method:
Synergy studies were performed by using polymyxin derivatives in combination with rifampin, a model compound for such antibacterial agents that the intact outer membrane of Gram-negative bacteria acts as a permeability barrier.

Data set [1] can be described thus: 7-day IV infusion toxicity (nephrotoxicity) study in cynomolgus monkeys. Here is the method: In vivo toxicity and toxicokinetic studies were performed by using cynomolgus monkeys. The laboratory that performed the animal studies is accredited by the Association for Assessment and Accreditation of Laboratory Animal Care (AAALAC), has an Animal Welfare Assurance issued by the Office of Laboratory Animal Welfare (OLAW), is registered with the United States Department of Agriculture (USDA), and has an Institutional Animal Care and Use Committee (IACUC) responsible for compliance with applicable laws and regulations concerning the humane care and use of laboratory animals.
Naïve female cynomolgus monkeys were acclimatized to study room for 28 days during which each animal was implanted with a permanent indwelling femoral catheter to permit continuous intravenous infusions. The animals were allowed surgical recovery period of at least 2 weeks before initiating dosing.
Polymyxin B sulfate was from Sigma-Aldrich (catalogue number P0972, lot number BCBF8382V). On each day of use, appropriate quantities of NAB739, NAB815 or polymyxin B were weighed and dissolved in appropriate volumes of sterile saline to prepare a stock solution for each test article and positive control. A correction factor was used in the stock solution preparation to account for both the purity and sulfate content in each test article. Accordingly, the dose (such as 36 mg/kg/d) refers to the dose of the pure peptide as its free base form, not as its sulfate salt.
The doses were the following: polymyxin B 18 mg/kg/d (Group 1), polymyxin B 24 mg/kg/d (Group 2), NAB739 24 mg/kg/d (Group 3), NAB739 36 mg/kg/d (Group 4), NAB815 24 mg/kg/d (Group 5), NAB815 36 mg/kg/d (Group 6). Three animals were included in each study groups.
(§1) For seven days, the animals were dosed by intravenous (IV) infusion three times daily (TID) at a dose volume of 10 mL/kg for 1 hour (±10 minutes), 8±0.5 hours apart. The day of initial dose administration was designated study Day 1, with subsequent days consecutively numbered. Days prior to the initial dose administration were consecutively numbered with the final day of acclimation referenced as Day −1.
(§2) The following parameters were evaluated at designed intervals: clinical observations, body weights, clinical pathology (hematology, coagulation, serum chemistry, urinalysis including urine sediments and urine chemistry), toxicokinetics (plasma and urine) and anatomic pathology (kidney). In cases of animals sacrificed on an unscheduled basis, samples were taken on the day of the sacrifice.
On the day of necropsy, animals were sedated with ketamine, weighed, and anesthetized with an intravenous injection of a commercial pentobarbital and phenytoin solution, followed by exsanguinations.
At necropsy, gross observations and organ weights were recorded, and specific tissues were collected. Histopathology was conducted on sections of kidney stained with hematoxylin and eosin (H&E).
The figures also show Urine N-acetyl-β-D-glucosaminidase/urine creatinine ratio (U-NAG/Crea; FIG. 3) and Urine Gamma Glutamyltransferase/urine creatinine ratio (U-GGT/Crea; FIG. 4), both urine biomarkers for kidney injury, in those animals. S-Crea and U-Crea were measured by using an Olympus Analyzer (OA) and the modified Jaffe method, S-BUN by using OA and urease/L-glutamate dehydrogenase. U-NAG was measured by using OA/enzymatic, and U-GGT by using OA and glutamyl-carboxy-p-nitroanilide IFCC.
The presence of the following nephro-pathological parameters was recorded in each animal: tubular basophilia (re-generation), tubular degeneration/necrosis, infiltration (by mononuclear and/or mixed inflammatory cells), tubular dilatation, and tubular casts.

Data set [2] in a line: Toxicokinetics (plasma and urine) in cynomolgus monkeys. The settings on record: cynomolgus monkey, in vivo; for AUC: plasma. Here is the method:
as §1, §2
Plasma and urine concentrations for toxicokinetic (TK) studies were determined by using liquid chromatograph interfaced with a mass spectrometer after precipitation of proteins. A sample (100 μL) was mixed with internal standard solution in water:formic acid (99:1 v/v; […]). Then, 600 μL of 100:1 acetonitrile:formic acid was added. The plates were centrifuged at 3200 rpm for 5 minutes. Using a Tomtec Quadra96, a 450 μL aliquot was transferred to a new 96-well plate and dried under nitrogen at 40° C. Then, 200 μL of water:methanol:formic acid (85:15:1 1 v/v) was added and the plate sealed for LC-MS/MS injection. LC-MS system consisted of Waters Acquity liquid chromatograph interfaced with a Thermo Scientific TSQ Quantitative triple quadrupole MS with ionization in the positive ion mode. Each sample (20 μL) was injected onto a Waters Acquity BEH Shield RP18 column (2.1×50 mm; 1.7 μm) equilibrated at 50° C. Mobile Phase A was 85:15:1 v/v water:methanol:formic acid. Mobile Phase B was 50:50:1 v/v acetonitrile:methanol:formic acid.
Peak area ratios from the calibration standard responses were regressed using a (1/concentration^2) linear fit for polymyxin B using colistin as the internal standard. For NAB739 and NAB815, peak areas from the calibration standard responses were regressed using a (1/concentration^2) quadratic fit (without the use of an internal standard).
The regression models were chosen based upon the behavior of the analytes across the concentration range used during development.
Toxicokinetic analysis was performed by using WinNonlin Phoenix version 6.3 software (Pharsight, Cary, N.C.). For plasma TK, noncompartmental IV infusion model was used.
In the cynomolgus monkey studies described in Example 3, where the peptides were administered as a 1-hour intravenous infusion three times daily, plasma and urine levels of the peptides were determined.

Data set [3] deals with E. coli ATCC 25922. As to conditions: ATCC 25922.
Data set [4] deals with E. coli JMI 3328. As to conditions: JMI 3328.
For data set [5], the system named is K. pneumoniae ATCC 43816. The settings on record: ATCC 43816.
In data set [6] the test system is K. pneumoniae JMI 27072. As to conditions: JMI 27072.
In data set [7] the test system is A. baumannii ATCC 19606. As to conditions: ATCC 19606.
Data set [8] deals with P. aeruginosa JMI 7445. As to conditions: JMI 7445.
The subject of data set [9] is E. coli JMI 109. The settings on record: JMI 109.
Data set [10] deals with A. baumannii CMI 417. The settings on record: alone; A. baumannii CMI 417 (polymyxin-nonsusceptible).
The test system of data set [11] is E. coli ATCC 25922. In words: microbe, parasite or virus in culture. As to conditions: Escherichia coli, ATCC25922.
Data set [12] relates to E. coli JMI 3328. In words: microbe, parasite or virus in culture. The settings on record: Escherichia coli, JMI3328.
For data set [13], the system named is K. pneumoniae ATCC 43816. In words: microbe, parasite or virus in culture. The settings on record: Klebsiella pneumoniae, ATCC43816.
In data set [14] the test system is K. pneumoniae JMI 27072. In words: microbe, parasite or virus in culture. As to conditions: Klebsiella pneumoniae, JMI27072.
Data set [15] concerns A. baumannii ATCC 19606. The data set is described as follows: microbe, parasite or virus in culture. The settings on record: Acinetobacter baumannii, ATCC19606.
For a further data set, the system named is A. baumannii JMI 48125. In words: microbe, parasite or virus in culture. As to conditions: Acinetobacter baumannii, JMI48125.
The test system of data set [16] is P. aeruginosa JMI 7445. The data set is described as follows: microbe, parasite or virus in culture. The settings on record: Pseudomonas aeruginosa, JMI7445.
For data set [17], the system named is E. coli JMI 109. The data set is described as follows: microbe, parasite or virus in culture. The settings on record: Escherichia coli, JMI109.
Another data set concerns K. pneumoniae JMI 27068. In words: microbe, parasite or virus in culture. As to conditions: Klebsiella pneumoniae, JMI27068.
Data set [18] deals with A. baumannii CMI 417. The data set is described as follows: microbe, parasite or virus in culture. As to conditions: Acinetobacter baumannii, CMI417.
Another data set concerns P. aeruginosa ATCC 27853. In words: MIC assay (CLSI broth microdilution; checkerboard with rifampin). The settings on record: Pseudomonas aeruginosa, ATCC27853. A general note: In broth dilution the organism is exposed to a series of concentrations in liquid medium.

For orientation: AUC means concentration integrated over time. The low end stands for less exposure, the high end for more exposure.

On to `CCCCCCCC(=O)N[C@H](C(=O)N[C@H](CO)C(=O)N[C@H]1CCNC(=O)[C@H]([C@@H](C)O)NC(=O)[C@H](CCN)NC(=O)[C@H](CCN)NC(=O)[C@H](CC(C)C)NC(=O)[C@@H](Cc2ccccc2)NC(=O)[C@H](CCN)NC1=O)[C@@H](C)O` [NAB739, octanoyl-Thr-DSer-[cyclo-α,γDab-αDab-DPhe-Leu-αDab-αDab-Thr]] (Octanoyl-T[dS][Dab][Dab][dF]L[Dab][Dab]T; lactam 3-C), for which the “synergistic activity with rifampin” value in the data set on P. aeruginosa was “lacked any notable synergistic activity with rifampin”. Moreover, in data set [1] (36 mg/kg/d IV TID 7 days), the “kidney injury markers (S-BUN, S-Crea, U-NAG/Crea, U-GGT/Crea)” value is listed as “all the four markers were significantly elevated; also recorded: both urine biomarkers were remarkably elevated”. Also, the “unscheduled necropsy / euthanized due to severe nephrotoxic effects” value in data set [1] (36 mg/kg/d IV TID 7 days, 3 animals per group) is given as “One animal receiving NAB739 at 36 mg/kg/d had to be euthanized; also recorded: on Day 5 for one animal in the NAB739 group”. Besides, the “kidney histopathology findings (grade of nephro-pathological parameters)” value in data set [1] (36 mg/kg/d IV TID, H&E kidney sections, per animal(s)) is “marked tubular degeneration/necrosis; also recorded: marked presence of tubular casts; also recorded: moderate findings, both in two parameters”. The AUC in [2] (36 mg/kg/day, AUCs, dosed at 36 mg/kg/d, day 1) was 239 µg·h/mL; in [2] (iv, 8 mg/kg, AUCs 0-8 h, after infusion of 8 mg/kg, day 1), 108 µg·h/mL; in data set [2] (iv, 8 mg/kg, AUCs 0-8 h, after infusion of 8 mg/kg, day 7) it was 137 µg·h/mL; in data set [2] (iv, 36 mg/kg/day, AUCs, dosed at 36 mg/kg/d, day 7) it was 302 µg·h/mL. Moreover, the dose excreted in [2] (female, iv, 36 mg/kg/d, urinary recoveries (0-8 h urine collection), 36 mg/kg/d, day 1, each animal) turned out to be 15.4%. For the same compound, the MIC in the data set with E. coli ATCC 25922 [3] was 2 µg/mL (≈ 1.86 µM); against E. coli JMI 3328 [4], 2 µg/mL (≈ 1.86 µM); against K. pneumoniae ATCC 43816 [5], 4 µg/mL (≈ 3.72 µM); against K. pneumoniae JMI 27072 [6], 2 to 4 µg/mL; in the data set on A. baumannii ATCC 19606 [7], 4 µg/mL (≈ 3.72 µM); against P. aeruginosa JMI 7445 [8], 4 µg/mL (≈ 3.72 µM). Moreover, the MIC came to 32 µg/mL (≈ 29.7 µM) in the data set on E. coli JMI 109 [9] and 128 µg/mL (≈ 119 µM) against A. baumannii CMI 417 [10].
With `CO[C@H]1/C=C/O[C@@]2(C)Oc3c(C)c(O)c4c(O)c(c(/C=N/N5CCN(C)CC5)c(O)c4c3C2=O)NC(=O)/C(C)=C\C=C\[C@H](C)[C@H](O)[C@@H](C)[C@@H](O)[C@@H](C)[C@H](OC(C)=O)[C@@H]1C` [rifampin], the MIC stood at 8 µg/mL (≈ 9.72 µM) in the data set with E. coli ATCC 25922 [11]; 8 µg/mL (≈ 9.72 µM) in the data set with E. coli JMI 3328 [12]; 16 µg/mL (≈ 19.4 µM) against K. pneumoniae ATCC 43816 [13]; 8 µg/mL (≈ 9.72 µM) against K. pneumoniae JMI 27072 [14]; 4 µg/mL (≈ 4.86 µM) with A. baumannii ATCC 19606 [15]; 4 µg/mL (≈ 4.86 µM) with A. baumannii JMI 48125. The MIC worked out at 32 µg/mL (≈ 38.9 µM) in the data set on P. aeruginosa JMI 7445 [16]; 16 µg/mL (≈ 19.4 µM) against E. coli JMI 109 [17]; 64 µg/mL (≈ 77.8 µM) in the data set with K. pneumoniae JMI 27068; 4 µg/mL (≈ 4.86 µM) against A. baumannii CMI 417 [18]; 32 µg/mL in the data set on P. aeruginosa ATCC 27853.
